Experimental data reported in patent US6713488B2 (priority 2000, dated 2004).
Entries after “also recorded” stand apart in the source; their conditions may differ.

Key:
human MOR [1] = molecular target: T1, human MOR (Homo sapiens, UniProt P35372); assay type: cell-based
T1 construct: FLAG (N); expressed in transfected cells; host or cells: HEK 293

[2] = system: acute mouse model of morphine dependence; assay: withdrawal jumping in acute mouse model of morphine dependence; assay type: in vivo, mice; details: 10 mg/kg i.p.; for reduction of jumping versus parent compound: acute morphine dependence; for withdrawal jumping: mice pretreated once with morphine 100 mg/kg s.c. -4 hr, 15 minutes observation
μ opioid receptor = molecular target: T2, μ opioid receptor (Homo sapiens, UniProt P35372); assay type: binding
T2 construct: FLAG (N); expressed in transfected cells
T2 sequence (P35372 whole entry): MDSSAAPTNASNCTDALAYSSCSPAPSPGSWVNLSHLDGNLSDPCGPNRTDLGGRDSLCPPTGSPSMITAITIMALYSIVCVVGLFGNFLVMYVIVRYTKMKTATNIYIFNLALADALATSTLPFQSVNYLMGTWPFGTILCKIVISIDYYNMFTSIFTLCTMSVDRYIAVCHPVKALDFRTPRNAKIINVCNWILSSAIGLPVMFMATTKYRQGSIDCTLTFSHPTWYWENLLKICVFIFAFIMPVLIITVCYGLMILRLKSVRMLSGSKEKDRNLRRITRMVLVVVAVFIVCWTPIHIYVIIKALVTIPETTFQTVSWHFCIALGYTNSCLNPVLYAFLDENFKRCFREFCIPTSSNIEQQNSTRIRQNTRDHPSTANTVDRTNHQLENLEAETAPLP

human MOR [3] = molecular target: T1, human MOR; assay type: biochemical
[4] = system: morphine-induced antinociception; assay: antagonism of morphine antinociception, 55° C. warm-water tail flick assay; assay type: in vivo, mice; details: for blockade of antinociceptive actions of morphine: 10 mg/kg i.p., morphine 20 nmol i.c.v. (A90), 55° C. tail-flick; for ID50 value against morphine-induced antinociception: morphine 20 nmol i.c.v.
δ opioid receptor = molecular target: T3, δ opioid receptor (Mus musculus, UniProt P32300); assay: 3H-naloxone equilibrium binding to DOR; details: 3H-naloxone 2 nM tracer, mean of triplicate ± SD
T3 construct: expressed in transfected cells; host or cells: HEK 293
T3 sequence (P32300 whole entry): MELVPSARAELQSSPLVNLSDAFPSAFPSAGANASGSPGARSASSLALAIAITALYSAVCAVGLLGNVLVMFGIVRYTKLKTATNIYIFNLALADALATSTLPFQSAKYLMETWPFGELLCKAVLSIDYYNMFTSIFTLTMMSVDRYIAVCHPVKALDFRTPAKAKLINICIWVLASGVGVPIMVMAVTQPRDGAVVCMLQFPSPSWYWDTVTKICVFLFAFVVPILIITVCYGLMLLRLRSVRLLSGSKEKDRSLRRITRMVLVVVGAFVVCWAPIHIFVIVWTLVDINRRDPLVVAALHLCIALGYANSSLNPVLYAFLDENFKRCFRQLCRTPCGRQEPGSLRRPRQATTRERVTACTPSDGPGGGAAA

[5] = system: chronic mouse model of morphine dependence; assay: withdrawal jumping in chronic mouse model of morphine dependence (morphine pellet implantation); assay type: in vivo, mice; details: for dose needed to elicit 100 jumps/mouse / plateau of withdrawal jumping: i.p.
DOR = DOR (Rattus norvegicus, UniProt P33533); details: cited from earlier work
DOR, sequence (P33533 whole entry): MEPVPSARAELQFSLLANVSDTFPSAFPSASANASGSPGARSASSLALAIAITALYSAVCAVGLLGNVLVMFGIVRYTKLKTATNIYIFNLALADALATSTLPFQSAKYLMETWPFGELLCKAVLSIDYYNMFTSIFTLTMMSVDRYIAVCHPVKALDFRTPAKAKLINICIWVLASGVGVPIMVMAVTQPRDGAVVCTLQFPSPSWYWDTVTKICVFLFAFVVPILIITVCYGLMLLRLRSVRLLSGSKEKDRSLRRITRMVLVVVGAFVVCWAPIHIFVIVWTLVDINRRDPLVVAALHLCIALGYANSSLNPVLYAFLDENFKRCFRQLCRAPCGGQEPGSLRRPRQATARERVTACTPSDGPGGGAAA

SH-SY5Y cells = details: cited from earlier work
drug-dependent mice = details: cited from earlier work

T1 sequence (P35372 whole entry): as the sequence (P35372 whole entry) above

With `C=CCN1CC[C@]23c4c5ccc(O)c4O[C@H]2[C@@H](O)CC[C@@]3(O)[C@H]1C5` [6α-Naloxol, 6α-naloxol] the “effect on forskolin stimulated cAMP levels” value (human MOR [1]) was “no effect”, the “reduction of jumping versus parent compound” value [2] was “approximately 50%” and the Ki (μ opioid receptor) was 0.63 ± 0.04 nM. For the same compound, the “blockade of inverse-agonistic effects of β-CNA” value (human MOR [3]) was “blocked”, the “effect on basal 35S-GTPγS binding activity” value (human MOR [3]) was “no significant effect” and the “blockade of antinociceptive actions of morphine” value (shortened to “blockade … of morphine”) [4] was “blocked”. The Ki (δ opioid receptor) was 2.1 ± 0.2 nM.

In the case of `Oc1ccc2c3c1O[C@H]1[C@H](O)CC[C@@]4(O)[C@@H](C2)N(CC2CC2)CC[C@]314` [6α-Naltrexol, 6α-naltrexol], the “reduction of jumping versus parent compound” value [2] is reported as “approximately 50%”, the “blockade … of morphine” value [4] is reported as “blocked” and the Ki (δ opioid receptor) is reported as 2.4 ± 0.1 nM.

With `N[C@H]1CC[C@@]2(O)[C@H]3Cc4ccc(O)c5c4[C@@]2(CCN3CC2CC2)[C@H]1O5` [6α-naltrexamine] the “effect on basal 35S-GTPγS binding activity” value (human MOR [3]) was “no significant effect”.

In the case of `C=CCN1CC[C@]23c4c5ccc(O)c4O[C@H]2[C@H](O)CC[C@@]3(O)[C@H]1C5` [6β-Naloxol, 6β-naloxol], the “effect on forskolin stimulated cAMP levels” value (human MOR [1]) is reported as “no effect”, the withdrawal jumping [2] is reported as “no withdrawal jumping” and the Ki (μ opioid receptor) is reported as 1.1 ± 0.02 nM. For the same compound, the “effect on basal 35S-GTPγS binding activity” value (human MOR [3]) was “no significant effect”, the “blockade … of morphine” value [4] was “only partial blockade” and the Ki (δ opioid receptor) was 2.3 ± 0.05 nM.

With `N[C@@H]1CC[C@@]2(O)[C@H]3Cc4ccc(O)c5c4[C@@]2(CCN3CC2CC2)[C@H]1O5` [6β-Naltrexamine, 6β-naltrexamine] the withdrawal jumping [2] was “no withdrawal jumping”, the Ki (μ opioid receptor) was 0.63 ± 0.05 nM and the “blockade … of morphine” value [4] was “only partial blockade”. The Ki (δ opioid receptor) was 2.3 ± 0.09 nM.

With `Oc1ccc2c3c1O[C@H]1[C@H](O)CC[C@@]4(O)[C@@H](C2)N(CC2CC2)CC[C@]314` [6β-Naltrexol, 6β-naltrexol] the withdrawal jumping [2] was “no withdrawal jumping”, the “dose needed to elicit 100 jumps/mouse” value [5] was 10 mg/kg and the “ID50 value against morphine-induced antinociception” value (from here on “ID50 value”) ([4]; antagonist i.c.v.) was 2.3 nmol. For the same compound, the “ID50 value” value ([4]; antagonist i.p.) was 1.0 mg/kg and the Ki (δ opioid receptor) was 2.1 ± 0.01 nM.

For `CC(=O)N[C@@H]1CC[C@@]2(O)[C@H]3Cc4ccc(O)c5c4[C@@]2(CCN3CC2CC2)[C@@H]1O5` [6β-naltrexamide], the withdrawal jumping [2] was “no withdrawal jumping”, the “potency in eliciting withdrawal jumping (in words)” value [5] was “low potency” and the “effect on basal 35S-GTPγS binding activity” value (human MOR [3]) was “no significant effect”. For the same compound, the “blockade … of morphine” value [4] was “effect similar to 6β-naltrexamine”.

In the case of `O=C1/C(=C/c2ccccc2)C[C@@]2(O)[C@H]3Cc4ccc(O)c5c4[C@@]2(CCN3CC2CC2)[C@H]1O5` [BNTX, 7-benzylidene-7-dehydronaltrexone, reference compound], the “effect on forskolin stimulated cAMP levels” value (human MOR [1]) is listed as “increased”, the “intrinsic activity at DOR” value (DOR) is listed as “inverse agonists” and the “effect on basal 35S-GTPγS binding activity” value (human MOR [3]) is listed as “decreased”.

In the case of `O=C(/C=C/c1ccc(Cl)cc1)N[C@@]12CCC(=O)[C@@H]3Oc4c(O)ccc5c4[C@@]31CCN(CC1CC1)[C@@H]2C5` [C-CAM, clocinnamox, reference compound], the “effect on forskolin stimulated cAMP levels” value (human MOR [1]) is listed as “increased”, the “intrinsic activity at DOR” value (DOR) is listed as “inverse agonists” and the “effect on basal 35S-GTPγS binding activity” value (human MOR [3]) is listed as “decreased”.

For `C=CCN1CC[C@]23c4c5ccc(O)c4O[C@H]2C(=O)CC[C@@]3(O)[C@H]1C5` [Naloxone, naloxone, reference compound], the withdrawal jumping [2] is listed as “aversive effects (withdrawal jumping); also recorded: precipitated robust withdrawal jumping”, the “effect in morphine pretreated SH-SY5Y cells” value (SH-SY5Y cells; morphine pretreated) is listed as “inverse agonist” and the “effect in untreated SH-SY5Y cells” value (SH-SY5Y cells; untreated cells) is listed as “little effect”. The “dose needed to elicit 100 jumps/mouse” value [5] was roughly 0.3 mg/kg, the “plateau of withdrawal jumping” value [5] was “approximately 200 jumps/mouse” and the “blockade … of morphine” value [4] was “blocked”. For the same compound, the “ID50 value” value ([4]; antagonist i.c.v.) was 3.4 nmol and the “ID50 value” value ([4]; antagonist i.p.) was 1.1 mg/kg.

With `O=C1CC[C@@]2(O)[C@H]3Cc4ccc(O)c5c4[C@@]2(CCN3CC2CC2)[C@H]1O5` [Naltrexone, naltrexone, reference compound] the withdrawal jumping [2] was “aversive effects (withdrawal jumping); also recorded: precipitated robust withdrawal jumping”, the “dose needed to elicit 100 jumps/mouse” value [5] was “approximately 0.1 mg/kg” and the “plateau of withdrawal jumping” value [5] was “approximately 200 jumps/mouse”. For the same compound, the “blockade … of morphine” value [4] was “blocked”, the “ID50 value” value ([4]; antagonist i.c.v.) was 0.26 nmol and the “ID50 value” value ([4]; antagonist i.p.) was 0.22 mg/kg.

In the case of `C=C1CC[C@@]2(O)[C@H]3Cc4ccc(O)c5c4[C@@]2(CCN3CC2CC2)[C@H]1O5` [nalmefene, reference compound], the “effect on basal 35S-GTPγS binding activity” value (human MOR [3]) is reported as “decreased”.

In the case of `COC(=O)C=CC(=O)NC1CCC2(O)C3Cc4ccc(O)c5c4C2(CCN3CC2CC2)C1O5.Cl` (stereo not drawn) [β-FNA, β-funaltrexamine HCl, reference compound], the “effect on basal 35S-GTPγS binding activity” value (human MOR [3]) is reported as “no significant effect”.

For “D-Phe-Cys-Tyr-D-Trp-Arg-Thr-Pen-Thr-Nh2 [CTAP]”, the “withdrawal elicited compared with naloxone” value (drug-dependent mice) is given as “significantly less withdrawal than naloxone”.
